pEC50: −log10 of the molar value. Where two headings read alike, the source gives them in different places.
Target: T1, human mAChR M4 (Homo sapiens, UniProt P08173)
T1 construct: expressed in transfected cells
T1 sequence (P08173 1-479): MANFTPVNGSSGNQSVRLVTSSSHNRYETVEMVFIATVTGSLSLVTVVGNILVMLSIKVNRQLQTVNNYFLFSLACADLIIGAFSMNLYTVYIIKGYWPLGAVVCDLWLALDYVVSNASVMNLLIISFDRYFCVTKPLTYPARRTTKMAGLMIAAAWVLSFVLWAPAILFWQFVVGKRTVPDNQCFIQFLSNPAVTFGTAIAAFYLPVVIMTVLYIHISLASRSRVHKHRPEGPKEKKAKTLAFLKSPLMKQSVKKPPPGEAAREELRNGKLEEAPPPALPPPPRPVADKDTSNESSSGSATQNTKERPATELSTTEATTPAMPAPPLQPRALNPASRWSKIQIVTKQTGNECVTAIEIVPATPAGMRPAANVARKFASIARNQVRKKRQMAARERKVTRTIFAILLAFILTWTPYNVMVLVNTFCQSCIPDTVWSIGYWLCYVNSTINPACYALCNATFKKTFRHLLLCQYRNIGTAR
Test: mAChR M4 cell-based functional assay (calcium mobilization, CHO-K1 hM4-Gqi5 cells)
Conditions: for Emax at 30 µM: CHO-K1, % ACh maximum at 30 μM, human M4; for pEC50: increase in the EC20 acetylcholine response, CHO-K1 hM4-Gqi5 cells; for Emax: CHO-K1
Procedure, shortened: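 CHO-K1 cells stably expressing human M4 with chimeric Gqi5, loaded with Fluo-4 AM; compounds given as 11-point 1:3 curves and calcium flux read on FDSS at 1 Hz. Acetylcholine EC20 added at 144 s, EC80 at 230 s; agonist, PAM (EC20 potentiation) and antagonist (EC80 inhibition) EC50/Emax from four-parameter fits.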

[1] = positive allosteric modulator activity, read-out: Human M4 EC50

Row | SMILES | Emax at 30 µM [%] | pEC50 [1] | Emax [%] | pEC50 (Human M4 EC50, positive allosteric modulator activity)
1 | Cc1cc(C(=O)NC2(c3ccccn3)CC2)nnc1N1CCc2ncc(N3CCCn4nccc43)cc2C1 [Example 543, 6-(3-(6,7-dihydropyrazolo[1,5-a]pyrimidin-4(5H)-yl)-7,8-dihydro-1,6-naphthyridin-6(5H)-yl)-5-methyl-N-(1-(pyridin-2-yl)cyclopropyl)pyridazine-3-carboxamide] | 114 | 7.33 | – | –
2 | Cc1c(C#N)nnc(N2CCc3ncc(-c4ccc(C5CC5)nc4)cc3C2)c1C [Example 301, 6-(3-(6-cyclopropylpyridin-3-yl)-7,8-dihydro-1,6-naphthyridin-6(5H)-yl)-4,5-dimethylpyridazine-3-carbonitrile] | 57 | 6.58 | – | –
3 | Cc1cc(C#N)cnc1N1CCc2ncc(-c3ccnc(C4CC4)c3)cc2C1 [Example 339, 6-(3-(2-cyclopropylpyridin-4-yl)-7,8-dihydro-1,6-naphthyridin-6(5H)-yl)-5-methylnicotinonitrile] | 90 | 6.56 | – | –
4 | FC(F)(F)c1cnc2c(c1)CN(c1nc(Cl)nc3c1CCCC3)CC2 [compound 264, 2-chloro-4-(3-(trifluoromethyl)-7,8-dihydro-1,6-naphthyridin-6(5H)-yl)-5,6,7,8-tetrahydroquinazoline] | 66 | 5.79 | – | –
5 | Cc1cc(F)c(F)cc1-c1cnc2c(c1)CN(c1ncc(C#N)cc1C)CC2 [Example 595, 6-(3-(4,5-difluoro-2-methylphenyl)-7,8-dihydro-1,6-naphthyridin-6(5H)-yl)-5-methylnicotinonitrile] | 38 | 5.35 | – | –
6 | Cc1ccncc1-c1cnc2c(c1)CN(c1nnc(C#N)cc1C)CC2 [Example 322, 5-methyl-6-(3-(4-methylpyridin-3-yl)-7,8-dihydro-1,6-naphthyridin-6(5H)-yl)pyridazine-3-carbonitrile] | 86 | 5.98 | – | –
7 | [2H]C([2H])(NC(=O)c1cc(C)c(N2CCc3ncc(C(F)(F)F)cc3C2)nn1)c1cscn1 [Example 507, 5-methyl-N-(thiazol-4-ylmethyl-d2)-6-(3-(trifluoromethyl)-7,8-dihydro-1,6-naphthyridin-6(5H)-yl)pyridazine-3-carboxamide] | 81 | 7.37 | – | –
8 | Cc1nc(Cl)c(C)c(N2CCc3ncc(-c4cnn(CC5CC5)c4)cc3C2)n1 [compound 194, 6-(6-chloro-2,5-dimethyl-pyrimidin-4-yl)-3-[1-(cyclopropylmethyl)pyrazol-4-yl]-7,8-dihydro-5H-1,6-naphthyridine] | 93 | 6.68 | – | –
9 | Cc1cc(C#N)nnc1N1Cc2cc(N3CCOCC3)cnc2C(C)C1 (single isomer, unassigned) [Example 407, 5-methyl-6-(8-methyl-3-morpholino-7,8-dihydro-1,6-naphthyridin-6(5H)-yl)pyridazine-3-carbonitrile] | 91 | 6.21 | – | –
10 | Cc1cc(C#N)cnc1N1CCc2ncc(-c3cncs3)cc2C1 [compound 95, 5-methyl-6-(3-thiazol-5-yl-7,8-dihydro-5H-1,6-naphthyridin-6-yl)pyridine-3-carbonitrile] | 98 | 7.08 | – | –
11 | Cc1cc(C#N)cnc1N1CCc2nc(C)c(N3CCOC(C)(C)C3)cc2C1 [Example 377, 6-(3-(2,2-dimethylmorpholino)-2-methyl-7,8-dihydro-1,6-naphthyridin-6(5H)-yl)-5-methylnicotinonitrile] | – | 6.12 | 76 | –
12 | Cc1nc(Cl)c(C)c(N2Cc3cc(Br)cnc3C(C)(C)C2)n1 [compound 236, 3-bromo-6-(6-chloro-2,5-dimethylpyrimidin-4-yl)-8,8-dimethyl-5,6,7,8-tetrahydro-1,6-naphthyridine] | – | ≤ 5.00 | 29 | –
13 | Cc1cc(C(=O)N2CC(C)(F)C2)nnc1N1CCc2ncc(Nc3ccnn3C)cc2C1 [Example 560, (3-fluoro-3-methylazetidin-1-yl)(5-methyl-6-(3-((1-methyl-1H-pyrazol-5-yl)amino)-7,8-dihydro-1,6-naphthyridin-6(5H)-yl)pyridazin-3-yl)methanone] | 75 | 7.19 | – | –
14 | Cc1c(C#N)nnc(N2CCc3ncc(N4CCCn5nccc54)cc3C2)c1C [Example 342, 6-(3-(6,7-dihydropyrazolo[1,5-a]pyrimidin-4(5H)-yl)-7,8-dihydro-1,6-naphthyridin-6(5H)-yl)-4,5-dimethylpyridazine-3-carbonitrile] | 86 | 7.19 | – | –
15 | Cc1nc(Cl)nc(N2CCc3ncc(C4CC4)cc3C2)c1C [compound 254, 6-(2-chloro-5,6-dimethylpyrimidin-4-yl)-3-cyclopropyl-5,6,7,8-tetrahydro-1,6-naphthyridine] | – | – | 95 | 7.15
16 | Cn1nccc1Nc1cnc2c(c1)CN(c1nc(Cl)nc3c1COC3)CC2 [compound 288, 6-(2-chloro-5,7-dihydrofuro[3,4-d]pyrimidin-4-yl)-N-(1-methyl-1H-pyrazol-5-yl)-5,6,7,8-tetrahydro-1,6-naphthyridin-3-amine] | – | 5.92 | – | –
17 | Cc1cc(C(=O)NCc2ccc(-n3ccnc3)nc2)cnc1N1CCc2ncc(-c3cn(C)nc3C)cc2C1 [Example 478, N-((6-(1H-imidazol-1-yl)pyridin-3-yl)methyl)-6-(3-(1,3-dimethyl-1H-pyrazol-4-yl)-7,8-dihydro-1,6-naphthyridin-6(5/)-yl)-5-methylnicotinamide] | 50 | 6.42 | – | –
18 | Cc1cc(C(=O)NCc2ncc(F)cn2)cnc1N1CCc2ncccc2C1 [compound 147, 6-(7,8-dihydro-5H-1,6-naphthyridin-6-yl)-N-[(5-fluoropyrimidin-2-yl)methyl]-5-methyl-pyridine-3-carboxamide] | 52 | ≤ 5.00 | – | –
19 | Cc1cc(C(=O)NCc2ccccc2)cnc1N1CCc2ncccc2C1 [compound 70, N-benzyl-6-(7,8-dihydro-5H-1,6-naphthyridin-6-yl)-5-methyl-pyridine-3-carboxamide] | 80 | 5.53 | – | –
20 | Cc1nc(C)c(C)c(N2CCc3ncc(N4CCCn5nccc54)cc3C2)n1 [compound 244, 3-(6,7-dihydropyrazolo[1,5-a]pyrimidin-4(5H)-yl)-6-(2,5,6-trimethylpyrimidin-4-yl)-5,6,7,8-tetrahydro-1,6-naphthyridine] | 99 | 7.60 | – | –
21 | Cc1cc(C(=O)N2CC(Cl)C2)nnc1N1CCc2ncc(N3CCO[C@H](C)C3)cc2C1 [Example 538, (R)-(3-chloroazetidin-1-yl)(5-methyl-6-(3-(2-methylmorpholino)-7,8-dihydro-1,6-naphthyridin-6(5H)-yl)pyridazin-3-yl)methanone] | 103 | 7.27 | – | –
22 | Cc1c(C#N)nnc(N2CCc3ncc(-c4ccc(F)nc4)cc3C2)c1C [Example 334, 6-(3-(6-fluoropyridin-3-yl)-7,8-dihydro-1,6-naphthyridin-6(5H)-yl)-4,5-dimethylpyridazine-3-carbonitrile] | 60 | 6.24 | – | –
23 | Cc1cc(C(=O)NCC(C)C)cnc1N1CCc2ncc(-c3cn(C)nc3C)cc2C1 [Example 460, 6-(3-(1,3-dimethyl-1H-pyrazol-4-yl)-7,8-dihydro-1,6-naphthyridin-6(5H)-yl)-N-isobutyl-5-methylnicotinamide] | 71 | 5.74 | – | –
24 | Cc1c(C#N)nnc(N2CCc3ncc(C(C)(O)C(F)(F)F)cc3C2)c1C (stereo not shown) [Example 425, 4,5-dimethyl-6-(3-(1,1,1-trifluoro-2-hydroxypropan-2-yl)-7,8-dihydro-1,6-naphthyridin-6(5H)-yl)pyridazine-3-carbonitrile] | 61 | 6.21 | – | –
25 | Cc1nc(C)c(-c2cnc3c(c2)CN(c2nnc(C#N)c(C)c2C)CC3)s1 [compound 294, 6-(3-(2,4-dimethylthiazol-5-yl)-7,8-dihydro-1,6-naphthyridin-6(5H)-yl)-4,5-dimethylpyridazine-3-carbonitrile] | 83 | 6.53 | – | –
26 | Cc1cc(C(=O)NCc2ccnn2C)cnc1N1CCc2ncccc2C1 [compound 63, 6-(7,8-dihydro-5H-1,6-naphthyridin-6-yl)-5-methyl-N-[(2-methylpyrazol-3-yl)methyl]pyridine-3-carboxamide] | 68 | 5.57 | – | –
27 | Cc1ccc(OCCOc2cnc3c(c2)CN(c2ncc(C#N)cc2C)CC3)cc1 [Example 431, 5-methyl-6-(3-(2-(p-tolyloxy)ethoxy)-7,8-dihydro-1,6-naphthyridin-6(5H)-yl)nicotinonitrile] | 47 | ≤ 5.00 | – | –
28 | [2H]C1([2H])Cc2ncc(Nc3ccncc3F)cc2C([2H])([2H])N1c1nnc(C#N)cc1C [Example 606, 6-(3-((3-fluoropyridin-4-yl)amino)-7,8-dihydro-1,6-naphthyridin-6(5H)-yl-5,5,7,7-d4)-5-methylpyridazine-3-carbonitrile] | 90 | 8.00 | – | –
